From patent US9545410B2, “Tyrosine kinase inhibitors as anti-kinetoplastid agents” (UNIVERSITY OF GEORGIA RESEARCH FOUNDATION, INC., priority 2006, dated 2017)
Where two headings read alike, the source gives them in different places.

How the values were obtained:
[1] = test system: blood stream T. brucei strain 427; assay: Cultured bloodstream T. brucei growth/viability, parasites counted with a haemocytometer; type: cell-based, Trypanosoma brucei; details: for concentration at which all parasites were killed / no parasites survived: blood stream T. brucei strain 427, 37° C. for 40 hours
Description: Cultured trypanosomes (seeded at 10^4/ml) in 100 μl of a 96-well plate received varying amounts of Tyrphostin A47 (Sigma). Parasites were counted with a haemocytometer after 48 hours in culture. Data are means of triplicate determinations, they are representative of three independent trials. Blood stream form of T. brucei were used for these studies since that stage of the parasite causes disease in humans. Inhibitory concentration 50 (IC50) is the drug concentration which reduces the growth rate by 50%. Minimum inhibitory concentration (MIC) is the lowest concentration which killed all the parasites.
T. brucei strain 427 was cultured axenically and seeded at 10^4 cells/ml in 200 μl of medium a 96-well plate. Tyrphostin AG1478 (Sigma) (Zhu et al., 2001, Cancer Lett; 169:27-32; Shushan et al., 2004, Hum Reprod; 19:1957-1967) was added to the stated final concentrations, cells were incubated at 37° C. for 40 hours, and parasites were counted with a haemocytometer. Data are mean values representative of two independent trials each of which was performed in triplicate. T. brucei replicates every 8-10 hours.
The 4-anilinoquinazoline canertinib (also referred to as C1-1033) is an inhibitor of EGFR kinase (Dewji, 2004, J Chemotherapy; 16(Suppl 4):44-48; Hamid, 2004, J Am Pharm Assoc; 44:52-58). To test the trypanocidal activity of canertinib, culture of blood stream T. brucei strain 427 was initiated in 24-well plates at 10^4 cells/ml (in 500 μl of medium (Hirumi and Hirumi, 1991, Parasitology; 102(Pt 2):225-236)). Canertinib (Heymach et al., 2006, Clin Cancer Res; 12:4441s) (provided by Pfizer) was added to the stated final concentrations, and cells were incubated at 37° C. for 40 hours. Control cells received an equal volume of solvent (DMSO). Parasites were counted with a haemocytometer. Data plotted are mean values of quadruplicate determinations from one of three independent trials that produced similar results.
This example also determined that erlotinib (TARCEVA), a 4-anilinoquinazoline tyrosine kinase inhibitor is trypanocidal. erlotinib (TARCEVA), like canertinib, is an inhibitor of EGFR kinase (Bulgaru et al., 2003, Expert Rev Anticancer Ther; 3(3):269-79; Akita and Sliwkowski, 2003, Semin Oncol; 30(3 Suppl 7):15-24). The culture of blood stream T. brucei strain 427 was initiated in 24-well plates at 10^4 cells/ml in 500 μl of medium (Hirumi and Hirumi, 1991, Parasitology; 102 Pt 2:225-236). Erlotinib (TARCEVA) (provided by Genentech/OSI), was added to the stated final concentrations shown in FIG. 4, and cells were incubated at 37° C. for 40 hours.
This example presents data showing sunitinib and axitinib (both provided by Pfizer) are trypanocidal. Sunitinib (also known as SU11248 and marketed under the trade name SUTENT) inhibits VEGFR, PDGF, and c-Kit kinases (reviewed in Steeghs et al., 2007, Ann Surg Oncol; 14(2):942-53) and is approved by the Food and Drug Administration for treatment of renal cell carcinoma. […] Therefore, this example tests whether sunitinib (SUTENT) compromised T. brucei viability. To blood stream form T. brucei 427 (seeded at 10^4 cells/ml in 500 μl of medium) sunitinib (SUTENT) (Abrams et al., 2003, Mol Cancer Ther; 2:471-478; Mendel et al., 2003, Clin Cancer Res; 9:327-337) was added to the stated final concentrations and cells were incubated at 37° C. for 40 hours. Parasites were counted with a haemocytometer. Data plotted are mean values of quadruplicate determinations from a representative experiment.

[2] = cited from earlier work
[3] = Trypanosoma brucei, blood stream T. brucei strain 427 seeded at 10^4 cells/ml, 37° C. for 40 hours, read-out: IC50

CCN(CC)CCNC(=O)c1c(C)[nH]c(/C=C2\C(=O)Nc3ccc(F)cc32)c1C [SUTENT, N-[2-(diethylamino)ethyl]-5-[(Z)-(5-fluoro-1,2-dihydro-2-oxo-3H-indol-3-ylidine)methyl]-2,4-dimethyl-1H-pyrrole-3-carboxamide]
trypanocidal effect on T. brucei (in words) ([1]; blood stream form T. brucei 427, 37° C. for 40 hours): kills T. brucei at low micromolar levels

N#C/C(=C\c1ccc(O)c(O)c1)C(N)=S [Tyrphostin A47]
IC50 ([1]; blood stream form T. brucei seeded at 10^4/ml, 96-well plate, counted after 48 hours, read-out: IC50 (drug concentration which reduces the growth rate by 50%)): 1 to 5 µM

COc1cc2ncnc(Nc3cccc(Cl)c3)c2cc1OC [Tyrphostin AG1478]
IC50 ([1]; blood stream T. brucei strain 427 seeded at 10^4 cells/ml, 37° C. for 40 hours, read-out: IC50): 2.5 to 5 µM

C=CC(=O)Nc1cc2c(Nc3ccc(F)c(Cl)c3)ncnc2cc1OCCCN1CCOCC1 [canertinib, N-[−4-[(3-chloro-4-fluorophenyl)amino]-7-[3-(4-morpholinyl)propoxy]-6-quinazolinyl]-2-propenamide]
IC50 [1, 3]: 1 µM | concentration at which all parasites were killed / no parasites survived [1]: Above 4 μM

C#Cc1cccc(Nc2ncnc3cc(OCCOC)c(OCCOC)cc23)c1 [erlotinib, N-(3-ethynylphenyl)-6,7-bis(2-methoxyethoxy)quinazolin-4-amine]
plasma concentration ([2]; human patients receiving a cycle of 150 mg/day): 60 µM | plasma concentration ([2]; single dose): 2 µM | IC50 [1, 3]: ~1.7 µM | concentration at which all parasites were killed / no parasites survived [1]: 10 µM
